One assay deals with non-human primate SSCs. Briefly: formation of ESC-like colonies in culture of non-human primate SSCs. Type of assay: cell-based. Particulars: BIO 1 μM; non-human primate cultures.
The subject of a further assay is human SSCs. Briefly: formation of ESC-like colonies in culture of human SSCs. Type of assay: cell-based. To be noted: BIO 1 μM; human cultures. Here is the method:
To optimize the culture condition, DMEM/F12 (1:1; Invitrogen) was applied instead of DMEM as basic medium and several growth factors for long-term culture were added: GDNF (4-50 ng/ml), bFGF (1-10 ng/ml), LIF (10^3 Units/ml), BIO (Calbiochem) and 1×B27 (Invitrogen). Collagenase IV (1 mg/ml in PBS) was used instead of trypsin/EDTA for passaging the cells. […] Tightly packed ESC-like colonies derived from human SSCs after 7 passages (about 1 month; FIG. 3d, e) when cells are cultured in DMEM/F12 medium containing 15% FCS, 2 mM glutamine, 1×NEAA, 50 μM β-ME, 10 ng/ml GDNF, 2 ng/ml bFGF, 10^3 Units/ml LIF and 1×B27.

The next assay has as its target T1, L-type calcium channels (Mus musculus, UniProt Q01815).
T1 construct: functional L-type calcium channels exist in the maGSC-derived beating cardiomyocytes; endogenous in cells; host or cells: beating cardiac clusters (day 5+15) differentiated from mouse maGSCs
Briefly: chronotropic effects of cardioactive drugs on beating cardiac clusters. Particulars: beating cardiac clusters at day 5+15; for beating frequency / contraction: 10^−5 mol/L; for chronotropic effect on the beating frequency of maGSC-derived cardiomyocytes: dose dependence. Type of assay: cell-based. An excerpt: In cardiac muscle, where Ca^2+ influx across the sarcolemma is essential for contraction, the dihydropyridine (DHP)-sensitive L-type calcium channel (DHP receptor) represents the major entry pathway of extracellular Ca^2+. […] The function of L-type calcium channels is examined in beating cardiac clusters at day 5+15 by evaluating chronotropic effects of cardioactive drugs.

Another assay concerns gap junctions. As to the kind of experiment: fluorescence recovery after photobleaching (FRAP) of calcein AM in cardiac clusters. Type of assay: cell-based, mouse. Particulars: carbenoxolone 50 μmol/L. On the procedure:
Functional coupling between cells is confirmed by fluorescence recovery after photobleaching (FRAP) analysis. Briefly, cardiac clusters were loaded with the membrane-permeant fluorescent dye calcein AM (5 μmol/L; Invitrogen) in Ca^2+-free Tyrode solution for 20 min at 37° C. After washing away the excess extracellular fluorescent dye to prevent further loading, the cultures were bathed in Ca^2+-free Tyrode solution and placed on the stage of a Zeiss LSM 5 PASCAL laser-scanning confocal microscope. Using Zeiss software, a rectangular region encompassing 30-50% of a single cell within a cell cluster was selected and its fluorescence was bleached by a high-intensity laser pulse (488 nm, 3-5 s duration). This caused immediate loss of calcein fluorescence emission recorded through a 505 nm long-pass emission filter. Calcein redistribution from adjacent unbleached cells through connexin pores into the bleached region of interest (ROI) was recorded in subsequent confocal images acquired at 30 s intervals for up to 10 min using a low-intensity laser pulse. Fluorescence recovery within ROI was plotted as a function of time and fit to a single exponential function: IROI (t)=A [1−exp (−kt)], where IROI (t) is the ROI fluorescence intensity at time t, A is the amplitude of fluorescence recovery, and k is the rate of recovery. The latter is considered a measure of gap junction permeability. […]

For assay [1], the system named is voltage-gated Na+ and L-type Ca2+ channels. As to the kind of experiment: patch-clamp spontaneous action potentials, channel blockade. Type of assay: cell-based, mouse. Particulars: cadmium 0.5 mmol/L; maGSC-derived cardiomyocytes. Here is the method:
To determine the functional expression of […] receptors in cardiomyocytes, the effects of β-adrenergic agonist isoproterenol (Iso; 1 μmol/L) on APs were studied. […] This is again in line with data from the ESC-derived cardiomyocytes. […] A further hint for the involvement of fast depolarising Na^+ channels are AP upstroke velocities in the magnitude of 30-50 Vs^−1 for ventricle-, purkinje and atrial-like APs (Table 3).
The membrane potential (Em) of cardiomyocytes was measured at room temperature with ruptured-patch whole cell current clamp (Maier, L. S., et al., Circ Res 2003, 92, 904-11). Fire-polished glass microelectrodes of >10 MΩ resistance when filled with pipette solution were used. Pipette solution contained (in mM) 120 potassium aspartate, 8 KCl, 7 NaCl, 1 MgCl2, 10 HEPES, 5 Mg-ATP, 0.3 Li-GTP (pH 7.2 with KOH). A normal Tyrode's solution with 2 mM CaCl2 served as bath solution. Access resistance was typically ˜20 MΩ after patch rupture. Liquid junction potentials were corrected before recording started. Spontaneous action potentials (APs) were recorded 1 min after patch rupture and followed for about 2 min. Signals were acquired at 1 kHz, filtered with 2.9 and 10 kHz Bessel filters, and recorded with an EPC10 amplifier (HEKA Elektronik, Lambrecht/Pfalz, Germany). […]
On the technique in general: In patch-clamp work, channel activity is measured electrically.

Entries after “also recorded” stand apart in the source; their conditions may differ.

T1 sequence (Q01815 whole entry): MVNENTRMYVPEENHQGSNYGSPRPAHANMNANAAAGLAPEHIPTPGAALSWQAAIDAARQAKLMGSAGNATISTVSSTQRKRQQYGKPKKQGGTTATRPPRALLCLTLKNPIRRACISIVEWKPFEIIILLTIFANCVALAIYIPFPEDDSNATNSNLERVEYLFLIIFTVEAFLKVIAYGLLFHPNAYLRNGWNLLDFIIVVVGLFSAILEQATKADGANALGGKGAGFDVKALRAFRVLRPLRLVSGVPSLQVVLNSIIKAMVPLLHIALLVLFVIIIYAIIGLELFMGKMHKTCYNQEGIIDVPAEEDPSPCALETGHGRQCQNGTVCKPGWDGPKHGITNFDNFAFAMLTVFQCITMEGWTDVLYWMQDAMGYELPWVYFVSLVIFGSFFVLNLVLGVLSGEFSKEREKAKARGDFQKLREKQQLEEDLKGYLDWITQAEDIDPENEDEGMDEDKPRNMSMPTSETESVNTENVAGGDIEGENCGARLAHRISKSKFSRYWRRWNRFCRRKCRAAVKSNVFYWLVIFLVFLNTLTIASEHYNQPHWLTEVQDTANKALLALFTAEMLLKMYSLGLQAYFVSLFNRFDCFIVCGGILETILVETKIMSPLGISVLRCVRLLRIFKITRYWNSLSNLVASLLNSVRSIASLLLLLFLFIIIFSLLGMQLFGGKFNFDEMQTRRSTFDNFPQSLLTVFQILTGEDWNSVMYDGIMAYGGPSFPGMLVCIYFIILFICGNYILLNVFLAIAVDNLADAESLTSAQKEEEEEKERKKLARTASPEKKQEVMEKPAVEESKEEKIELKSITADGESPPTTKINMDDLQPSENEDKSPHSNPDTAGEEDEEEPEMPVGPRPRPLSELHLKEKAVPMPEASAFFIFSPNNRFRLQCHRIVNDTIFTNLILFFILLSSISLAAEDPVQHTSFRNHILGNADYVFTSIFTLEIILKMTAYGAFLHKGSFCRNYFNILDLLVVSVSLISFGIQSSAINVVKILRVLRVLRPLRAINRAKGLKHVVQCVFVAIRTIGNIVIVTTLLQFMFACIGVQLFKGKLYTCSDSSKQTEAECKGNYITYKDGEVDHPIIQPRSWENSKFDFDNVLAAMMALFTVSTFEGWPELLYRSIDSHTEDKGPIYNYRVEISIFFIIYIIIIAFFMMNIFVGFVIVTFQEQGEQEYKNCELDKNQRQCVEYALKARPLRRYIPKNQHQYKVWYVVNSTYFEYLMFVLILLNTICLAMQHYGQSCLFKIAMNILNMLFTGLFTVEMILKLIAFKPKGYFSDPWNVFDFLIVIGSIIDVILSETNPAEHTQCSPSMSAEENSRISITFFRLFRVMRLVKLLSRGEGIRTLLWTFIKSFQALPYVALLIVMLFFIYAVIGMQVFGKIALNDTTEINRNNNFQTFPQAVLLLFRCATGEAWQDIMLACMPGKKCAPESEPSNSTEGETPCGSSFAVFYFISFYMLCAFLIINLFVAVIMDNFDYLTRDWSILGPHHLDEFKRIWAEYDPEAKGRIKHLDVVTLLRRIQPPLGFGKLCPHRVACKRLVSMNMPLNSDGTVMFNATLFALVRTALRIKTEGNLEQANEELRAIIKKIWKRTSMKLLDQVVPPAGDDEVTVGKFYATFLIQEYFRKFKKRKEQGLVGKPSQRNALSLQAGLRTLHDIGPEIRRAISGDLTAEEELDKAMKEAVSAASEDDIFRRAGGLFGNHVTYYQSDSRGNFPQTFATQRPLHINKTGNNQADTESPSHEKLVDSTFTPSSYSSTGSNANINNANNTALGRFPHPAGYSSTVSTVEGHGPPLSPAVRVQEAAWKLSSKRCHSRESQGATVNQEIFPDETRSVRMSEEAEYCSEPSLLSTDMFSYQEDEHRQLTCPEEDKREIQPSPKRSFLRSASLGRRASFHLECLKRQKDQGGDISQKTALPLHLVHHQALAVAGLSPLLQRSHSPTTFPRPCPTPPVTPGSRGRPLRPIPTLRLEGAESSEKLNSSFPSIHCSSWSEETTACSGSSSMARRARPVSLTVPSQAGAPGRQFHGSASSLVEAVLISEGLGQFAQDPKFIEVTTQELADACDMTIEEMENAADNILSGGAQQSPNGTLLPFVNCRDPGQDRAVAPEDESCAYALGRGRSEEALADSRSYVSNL
T1 sequence (Q8CC27 whole entry partner): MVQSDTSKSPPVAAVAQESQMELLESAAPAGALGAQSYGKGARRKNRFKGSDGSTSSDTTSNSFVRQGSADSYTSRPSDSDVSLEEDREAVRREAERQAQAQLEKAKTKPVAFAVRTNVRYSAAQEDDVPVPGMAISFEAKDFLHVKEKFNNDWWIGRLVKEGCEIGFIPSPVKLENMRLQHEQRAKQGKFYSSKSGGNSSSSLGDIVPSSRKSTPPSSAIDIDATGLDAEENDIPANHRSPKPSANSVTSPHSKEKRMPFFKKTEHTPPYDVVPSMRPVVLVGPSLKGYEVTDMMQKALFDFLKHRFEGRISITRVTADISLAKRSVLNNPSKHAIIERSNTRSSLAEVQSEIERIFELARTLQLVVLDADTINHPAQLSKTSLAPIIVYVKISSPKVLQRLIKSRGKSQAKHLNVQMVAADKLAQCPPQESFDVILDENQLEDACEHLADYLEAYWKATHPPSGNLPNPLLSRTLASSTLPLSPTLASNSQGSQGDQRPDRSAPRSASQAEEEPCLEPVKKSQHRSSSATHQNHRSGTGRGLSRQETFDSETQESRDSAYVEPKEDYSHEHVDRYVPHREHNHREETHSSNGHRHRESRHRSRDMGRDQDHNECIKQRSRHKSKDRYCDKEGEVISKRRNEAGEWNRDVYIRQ
T1 sequence (O08532 25-956 partner limits assumed): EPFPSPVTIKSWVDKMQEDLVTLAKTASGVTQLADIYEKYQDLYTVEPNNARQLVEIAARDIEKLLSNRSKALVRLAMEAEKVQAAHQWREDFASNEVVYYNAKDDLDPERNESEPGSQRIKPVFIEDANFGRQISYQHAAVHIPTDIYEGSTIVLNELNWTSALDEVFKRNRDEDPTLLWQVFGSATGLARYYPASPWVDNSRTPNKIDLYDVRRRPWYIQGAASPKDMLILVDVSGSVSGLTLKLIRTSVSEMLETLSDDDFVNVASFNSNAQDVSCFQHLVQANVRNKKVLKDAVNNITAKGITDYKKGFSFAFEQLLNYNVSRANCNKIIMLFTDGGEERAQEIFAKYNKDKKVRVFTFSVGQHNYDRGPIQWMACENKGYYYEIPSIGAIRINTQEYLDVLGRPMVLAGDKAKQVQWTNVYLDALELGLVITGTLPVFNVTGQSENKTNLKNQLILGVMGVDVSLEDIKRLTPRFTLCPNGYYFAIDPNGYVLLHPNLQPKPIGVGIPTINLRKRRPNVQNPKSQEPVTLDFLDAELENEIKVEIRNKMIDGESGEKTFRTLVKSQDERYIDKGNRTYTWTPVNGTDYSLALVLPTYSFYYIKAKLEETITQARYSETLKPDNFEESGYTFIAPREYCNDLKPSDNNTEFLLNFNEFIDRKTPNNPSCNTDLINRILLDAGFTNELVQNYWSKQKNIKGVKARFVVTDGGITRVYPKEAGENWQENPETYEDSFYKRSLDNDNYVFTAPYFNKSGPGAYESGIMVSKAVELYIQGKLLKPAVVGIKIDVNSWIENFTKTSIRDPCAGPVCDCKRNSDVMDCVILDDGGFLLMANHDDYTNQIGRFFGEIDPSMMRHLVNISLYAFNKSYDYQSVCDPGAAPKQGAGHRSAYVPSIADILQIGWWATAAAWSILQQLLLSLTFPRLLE
T1 sequence (O08532 957-1103 partner limits assumed): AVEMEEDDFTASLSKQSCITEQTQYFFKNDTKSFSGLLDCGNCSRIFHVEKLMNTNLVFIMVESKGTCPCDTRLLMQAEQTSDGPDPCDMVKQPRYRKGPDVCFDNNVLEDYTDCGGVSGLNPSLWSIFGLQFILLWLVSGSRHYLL

For the molecule `O=C1Nc2cc(Br)ccc2/C1=C1/Nc2ccccc2/C1=N\O` [BIO, (2′Z, 3′E)-6-Bromoindirubin-3′-oxime], the “formation of ESC-like colonies” value with non-human primate SSCs and in the assay with human SSCs was “optimized the formation of ESC-like colonies” each time. As for `COc1ccc([C@@H]2Sc3ccccc3N(CCN(C)C)C(=O)[C@@H]2OC(C)=O)cc1` [diltiazem], at L-type calcium channels, the “beating frequency / contraction” value was “almost completely blockes the contraction” and the “chronotropic effect on the beating frequency of maGSC-derived cardiomyocytes” value is recorded as “dose-dependent negative chronotropic effects”. Take (S)-BayK 8644: at L-type calcium channels, the “beating frequency / contraction” value is reported as “doubles the beating frequency” and the “chronotropic effect on the beating frequency of maGSC-derived cardiomyocytes” value is reported as “dose-dependent positive chronotropic effects”. Consider `CC1(C)[C@@H](OC(=O)CCC(=O)O)CC[C@]2(C)[C@H]3C(=O)C=C4[C@@H]5C[C@@](C)(C(=O)O)CC[C@]5(C)CC[C@@]4(C)[C@]3(C)CC[C@@H]12` [carbenoxolone, 3β-hydroxy-11-oxoolean-12-en-30-oic acid 3-hemisuccinate], for which the “fluorescence recovery after photobleaching” value with gap junctions is on record as “disrupted; also recorded: almost completely abolished”. `[Cd]` [cadmium]: the “spontaneous APs” value in assay [1] is reported as “completely abolished”.

(Values after patent US20100034779A1, “COMPOSITIONS AND METHODS FOR PRODUCING PLURIPOTENT CELLS FROM ADULT TESTIS” (priority 2005, published 2010).)
